Data published in patent publication US6667387B1, “HCV core peptides” (priority 1992, dated 2003).
Ends that are not written are not given here. * marks the point of attachment. Biotin = O=C1N[C@H]2[C@H](CS[C@H]2CCCCC(=O)*)N1

How the values were obtained:
Assay type in all cases: binding, human
[1] = tested on: antibodies in antisera from HIV-2 infected persons; test: ELISA with HIV-2 antibody-positive sera (biotinylated peptides on streptavidin- or avidin-coated plates, unbiotinylated peptides coated directly)
Protocol: (§1) Where peptides were to be coated directly, stock solutions of the peptides were diluted in sodium carbonate buffer, pH 9.6 and used to coat polystyrene microtiter plates at a peptide concentration of 2 to 5 micrograms per milliliter for 1 hour at 37° C.
(§2) In cases where biotinylated peptides were to be evaluated, plates were first coated with streptavidin in sodium carbonate buffer, pH 9.6 at a concentration of 3 micrograms per milliliter for 1 hour at 37° C. The plates were then washed to remove excess, unbound protein. A working solution of the biotinylated peptide at 1 microgram per milliliter in sodium carbonate buffer was then added to the wells of the microtiter plate and incubated for 1 hours at 37° C.
(§3) Once the plates had been coated with antigen, any remaining free binding sites on the plastic were blocked with casein. After washing, a dilution of the appropriate antisera, usually 1:100, was added to the wells of the plates and incubated for 1 hour at 37° C.
(§4) After washing to remove unbound material, specific antibody binding was detected by incubating the plates with goat anti-human immunoglobulin antibodies conjugated to the enzyme horseradish peroxidase. Following removal of unbound conjugate by washing, a solution containing H2O2 and 3,3′,5,5′-tetramethylbenzidine was added.
(§5) Reactions were stopped after a suitable interval by addition of sulfuric acid. […] Absorbance measurements were made at a wavelength of 450 nanometers and all data are expressed as an optical density value at this wavelength.
The biotinylated peptides were loaded onto microtiter plates which had been coated with streptavidin. Antibody binding to these peptides was compared to antibody binding to the unibiotinylated peptides which were coated directly onto microtiter plates. It is evident that the biotinylated peptides from the HIV-1 or HIV-2 transmembrane proteins bound to streptavidin are recognized very well by antisera from HIV-1 or HIV-2 infected persons respectively. This is in contrast to the unbiotinylated versions of these peptides coated directly onto the polystyrene plates.
(§6) To determine how well biotinylated peptides would function in a mixture when bound to streptavidin- or avidin-coated plates, two mixtures were made of the N-terminally biotinylated versions of the HIV-1 peptides TM-HIV-1 (hereabove referred to as 1a.1) and V3-nm (hereabove referred to as 1b.4), the HIV-2 peptide TM-HIV-2 (hereabove referred to as 2a), and the hepatitis C virus peptides II, IX, and XVIII. Mixture A contained each of the six biotinylated peptides at a concentration of 1 microgram per milliliter (6 micrograms per milliliter peptide, total) while in mixture B, each peptide was present at a concentration of 0.1 microgram per milliliter (0.6 microgram per milliliter peptide, total). The individual peptides were coated at a concentration of 1 microgram per milliliter. For purposes of comparison, mixtures A and B were also coated directly onto the wells of a microtiter plate. Samples from HIV-1, HIV-2, and HCV-seropositive donors were tested and compared to sera from seronegative blood donors. A cut-off absorbance value of 0.250 was used to determine whether a reaction was positive or negative. Absorbance values equal or greater than 0.250 were considered positive while absorbance values below this value were considered negative.
Two glycine residues were added at the N-terminus of each peptide to serve as a spacer and a biotin was coupled to the α-amino group of the resulting N-terminal glycine. The peptides were bound to streptavidin and coated in the wells of microwell plates. HIV-2 antibody-positive sera were used to evaluate these two peptides in an ELISA.

[2] = ELISA with seronegative / negative control sera (specificity)
Outline: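 Specificity readout is OD at 450 nm (HRP goat anti-human Ig, TMB/H2O2, sulfuric acid stop), with ≥0.250 counted positive. Seronegative donor sera (typically 1:100, 1 h, 37° C) were applied to casein-blocked wells coated with peptide directly or via streptavidin capture of biotinylated peptide.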

[3] = tested on: antibodies in antisera from HIV-1 infected persons; test: ELISA with HIV-1 antibody-positive sera (biotinylated peptides on streptavidin- or avidin-coated plates, unbiotinylated peptides coated directly)
Protocol: as §1, §2, §3, §4, §5
Experiments were performed to evaluate antibody recognition of short, 10 amino acid-long, N-acetylated peptides corresponding to other contained within the transmembrane proteins of HIV-1 and HIV-2. […] The peptides used for the comparison were as follows:
Antibody binding to these peptides was compared to antibody binding to the unibiotinylated peptides which were coated directly onto microtiter plates.
In order to evaluate antibody recognition of these two peptides, the peptides were bound individually to streptavidin-coated microtiter plates and tested using a panel of antisera from HIV-1 seropositive donors.
as §6
A spacer consisting of two glycine residues was added to the amino terminus.

[4] = tested on: antibodies to HTLV-I and HTLV-II (serum panel PRP203); test: Line immunoassay (LIA) with biotinylated HTLV-I and HTLV-II peptides; details: sample nr. 12 of panel PRP203
Description: A number of these peptides were used to prepare LIA strips for the detection of antibodies of HTLV. Several of the peptides, such as I-p19 and I-gp46-4, which are derived from regions of the HTLV-I p19 gag protein and envelope glycoprotein, respectively, are expected to be recognized by antibodies produced as a result of both HTLV-I and HTLV-II infection since these sequences are highly homologous in the two viruses. Others, such as I-gp46-3, I-gp46-6 for HTLV-I, and II-gp52-1, II-gp52-2 and II-gp52-3 for HTLV-II may be useful for detection of antibodies as well as discrimination. Since there is some homology between the HTLV-I and HTLV-II sequences, cross-reactions are to be expected. Nevertheless, the intensities of the reactions to the various peptides should reveal the identity of the virus to which the antibodies were produced.
The LIA strips were evaluated using a commercially available serum panel (Boston Biomedia Inc., mixed titer panel, PRP203). The test results are in complete agreement with the analysis provided by distributor. […] This sample could not be differentiated using these peptides, nor could this sample be differentiated by any other test used by the distributor of the serum panel. Sample nr. […] In an additional experiment, an ELISA was performed using all 10 of the biotinylated HTLV-I and HTLV-II peptides. […]

[5] = tested on: antibodies in sera from HCV-seropositive donors; test: ELISA with HCV antibody-positive sera (biotinylated peptides on streptavidin- or avidin-coated plates, unbiotinylated peptides coated directly); details: Table 8, Avidin
Outline: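 Read-out is OD at 450 nm after HRP goat anti-human Ig and TMB development, following 1 h at 37° C. with seropositive or negative sera diluted 1:100 (or 20-fold). Antigen was either unbiotinylated peptide adsorbed on plastic (pH 9.6 carbonate, 2–5 or 3 μg/ml) or biotinylated peptide at 1 μg/ml captured on streptavidin-coated wells, with casein blocking.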

[6] = Table 1, serum 53-3, HIV-2 positive
[7] = Table 1, serum 1400, HIV-2 positive
[8] = Table 1, serum AG, HIV-2 positive
[9] = Table 1, serum 180, seronegative donor
[10] = Table 1, serum 194, seronegative donor
[11] = Table 1, serum 195, seronegative donor
[12] = Table 1, serum 204, seronegative donor
[13] = Table 1, serum 0724, HIV-1 positive
[14] = Table 1, serum PL, HIV-1 positive
[15] = Table 1, serum VE, HIV-1 positive
[16] = Table 1, serum YEMO, HIV-1 positive
[17] = Table 1, serum mm, HIV-1 positive

| Substance | optical density (450 nm) [1, 6] | optical density (450 nm) [1, 7] | optical density (450 nm) [1, 8] | optical density (450 nm) [2, 9] | optical density (450 nm) [2, 10] | optical density (450 nm) [2, 11] | optical density (450 nm) [2, 12] | optical density (450 nm) [3, 13] | optical density (450 nm) [3, 14] | optical density (450 nm) [3, 15] | optical density (450 nm) [3, 16] | optical density (450 nm) [3, 17] | further results |
| --- | --- | --- | --- | --- | --- | --- | --- | --- | --- | --- | --- | --- | --- |
| Ac-Ile-Trp-Gly-Cys-Ser-Gly-Lys-Leu-Ile-Cys-NH2 (Ac-IWGCSGKLIC-NH2; cysteine pairing not given here) [TM-HIV-1, unbiotinylated N-acetylated decamer of the HIV-1 transmembrane protein] | 0.000 | 0.000 | 0.000 | 0.000 | 0.000 | 0.000 | 0.000 | 0.174 | 0.000 | 0.052 | 0.162 | 0.051 |  |
| Ac-Ser-Trp-Gly-Cys-Ala-Phe-Arg-Gln-Val-Cys-NH2 (Ac-SWGCAFRQVC-NH2; cysteine pairing not given here) [TM-HIV-2, unbiotinylated N-acetylated decamer of the HIV-2 transmembrane protein] | 0.000 | 0.000 | 0.000 | 0.000 | 0.000 | 0.000 | 0.000 | 0.000 | 0.000 | 0.000 | 0.000 | 0.000 |  |
| Bio Gly Gly Pro Pro Pro Pro Ser Ser Pro Thr His Asp Pro Pro Asp Ser Asp Pro Gln Ile Pro Pro Pro Tyr Val Glu Pro Thr Ala Pro Gln Val Leu (Biotin-GGPPPPSSPTHDPPDSDPQIPPPYVEPTAPQVL) [I-p19] |  |  |  |  |  |  |  |  |  |  |  |  | LIA reaction [4]: positive reaction |
| Bio-Gly-Gly-Gly-Ser-Trp-Gly-Cys-Ala-Phe-Arg-Gln-Val-Cys-NH2 (Biotin-GGGSWGCAFRQVC-NH2; cysteine pairing not given here) [TM-HIV-2 Bio] | 2.365 | 1.982 | 2.323 | 0.000 | 0.000 | 0.000 | 0.000 | 0.000 | 0.000 | 0.000 | 0.000 | 0.000 | optical density (450 nm) ([5]; serum 8243 (HCV)): 0.109; optical density (450 nm) ([5]; serum 8247 (HCV)): 0.048; optical density (450 nm) ([5]; serum 8248 (HCV)): 0.046; optical density (450 nm) ([5]; serum 8269 (HCV)): 0.049; optical density (450 nm) ([5]; serum 8273 (HCV)): 0.050; optical density (450 nm) ([5]; serum 8278 (HCV)): 0.045; optical density (450 nm) ([5]; serum 8285 (HCV)): 0.163; optical density (450 nm) ([5]; serum 8290 (HCV)): 0.047; optical density (450 nm) ([5]; serum 8291 (HCV)): 0.050; optical density (450 nm) ([1]; Table 8, serum 1400 (HIV-2), Avidin): 1.781; optical density (450 nm) ([1]; Table 8, serum AG (HIV-2), Avidin): 2.065; optical density (450 nm) ([2]; Table 8, serum 1782 (blood donor), Avidin): 0.057; optical density (450 nm) ([2]; Table 8, serum 1784 (blood donor), Avidin): 0.046; optical density (450 nm) ([2]; Table 8, serum 1785 (blood donor), Avidin): 0.047; optical density (450 nm) ([2]; Table 8, serum 1794 (blood donor), Avidin): 0.090; optical density (450 nm) ([3]; Table 8, serum 3990 (HIV-1), Avidin): 0.054; optical density (450 nm) ([3]; Table 8, serum DV (HIV-1), Avidin): 0.048; optical density (450 nm) ([3]; Table 8, serum PL (HIV-1), Avidin): 0.051; optical density (450 nm) ([3]; Table 8, serum YS (HIV-1), Avidin): 0.046 |
